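Method: 48-hour compound exposure of cells in 96-well plates, five concentrations, linear interpolation of endpoints. The concentration for 50% growth inhibition is given as GI50.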 Activity calls are given as the source filed them. Cut-off read from the data, not from the text of the source: active = GI50 up to about 1.1 µM and inactive = higher.
Legend:
Assay in all cases: inhibition of tumour cell growth, NCI panel, 48 h
[1] = system: IGROV-1
[2] = system: ACHN
[3] = system: RXF 393
[4] = system: PC-3
[5] = system: M14
[6] = system: COLO 205
[7] = system: LOX IMVI
[8] = system: SK-OV-3
[9] = system: K562
[10] = system: SK-MEL-28
[11] = system: OVCAR-8
[12] = system: Malme-3M
[13] = system: HCT-15
[14] = system: UACC-257
[15] = system: HCT-116
[16] = system: EKVX
[17] = system: NCI/ADR-RES
[18] = system: SR
[19] = system: CCRF-CEM
[20] = system: MDA-MB-231

Compound | GI50 [1] | GI50 [2] | GI50 [3] | GI50 [4] | GI50 [5] | GI50 [6] | GI50 [7] | GI50 [8] | GI50 [9] | GI50 [10] | GI50 [11] | GI50 [12] | GI50 [13] [µM] | GI50 [14] | GI50 [15] | GI50 [16] | GI50 [17] | GI50 [18] | GI50 [19] | GI50 [20]
C#CC1(O)CCCCCCCCC2(CCCCCCCC1)OCCO2 | 16.7 µM (inactive) | 13.8 µM (inactive) | 10.9 µM (inactive) | 12.8 µM (inactive) | 19.6 µM (inactive) | 17.4 µM (inactive) | 22.1 µM (inactive) | 18.7 µM (inactive) | 17.5 µM (inactive) | 19.5 µM (inactive) | 19.4 µM (inactive) | 19.5 µM (inactive) | 18 | 23.4 µM (inactive) | 16.5 µM (inactive) | 18.4 µM (inactive) | 18.1 µM (inactive) | 12.3 µM (inactive) |  | 
O=C1c2ccccc2C(=O)c2sc(Nc3ccccc3C(F)(F)F)nc21 | 12.5 µM (inactive) | 16.6 µM (inactive) | 20.8 µM (inactive) | 12.2 µM (inactive) | 21.7 µM (inactive) | 8.89 µM (inactive) | 25.1 µM (inactive) | 16.7 µM (inactive) | 3.01 µM (inactive) | 16.2 µM (inactive) |  | 12.4 µM (inactive) | 7.29 | 15.6 µM (inactive) | 28.6 µM (inactive) | 18.2 µM (inactive) |  | 4.16 µM (inactive) | 3.79 µM (inactive) | 0.264 µM (active)
Cc1ccc(-c2ccc(Nc3c4ccccc4nc4ccccc34)cc2)cn1 | 5.43 µM (inactive) | 2.32 µM (inactive) |  | 4.97 µM (inactive) | 2.95 µM (inactive) | 3.37 µM (inactive) | 2.71 µM (inactive) |  | 3.66 µM (inactive) | 2.51 µM (inactive) | 4.81 µM (inactive) |  | 3.75 | 7.13 µM (inactive) | 2.91 µM (inactive) | 6.64 µM (inactive) | 8.89 µM (inactive) | 2.07 µM (inactive) |  | 
COC(=O)C(=O)C(C(=O)C(=O)Nc1ccc(OC)cc1[N+](=O)[O-])c1nc2ccc([N+](=O)[O-])cc2nc1O (stereo not drawn) | > 100 µM (inactive) | > 100 µM (inactive) | > 100 µM (inactive) |  | > 100 µM (inactive) | > 100 µM (inactive) | > 100 µM (inactive) | > 100 µM (inactive) | > 100 µM (inactive) |  | > 100 µM (inactive) | > 100 µM (inactive) | > 100 | > 100 µM (inactive) | > 100 µM (inactive) | > 100 µM (inactive) |  | > 100 µM (inactive) | > 100 µM (inactive) | 
CN(CCO)c1nc2c(c(=O)[nH]1)CNCC2 | > 100 µM (inactive) | > 100 µM (inactive) | > 100 µM (inactive) |  | > 100 µM (inactive) | > 100 µM (inactive) | > 100 µM (inactive) | > 100 µM (inactive) | > 100 µM (inactive) | > 100 µM (inactive) | > 100 µM (inactive) | > 100 µM (inactive) | > 100 | > 100 µM (inactive) | > 100 µM (inactive) | > 100 µM (inactive) |  | > 100 µM (inactive) | > 100 µM (inactive) | 
COC(=O)C(CC(=O)Nc1ccc(Cl)c(Cl)c1)C(=O)C(=O)Nc1ccc(Cl)c(Cl)c1 (stereo not drawn) | > 100 µM (inactive) | > 100 µM (inactive) | > 100 µM (inactive) |  | > 100 µM (inactive) | > 100 µM (inactive) | > 100 µM (inactive) | > 100 µM (inactive) | > 100 µM (inactive) | > 100 µM (inactive) | > 100 µM (inactive) | > 100 µM (inactive) | > 100 | > 100 µM (inactive) | > 100 µM (inactive) | > 100 µM (inactive) |  | 33.3 µM (inactive) | > 100 µM (inactive) | 
COc1cc(OC)c(C2c3cc4c(cc3OC(N3CCCC3)C2C)OCO4)c(OC)c1 (stereo not drawn) | 13.5 µM (inactive) | 5.11 µM (inactive) |  | 15.7 µM (inactive) | 12.2 µM (inactive) | > 10 µM (inactive) | 11.9 µM (inactive) |  | 19.7 µM (inactive) | 18.4 µM (inactive) | 16.3 µM (inactive) |  | 6.11 | 19.2 µM (inactive) | 3.98 µM (inactive) | 22.3 µM (inactive) | 15.2 µM (inactive) | 11.1 µM (inactive) | 15.2 µM (inactive) | 
C[N+](C)(C)CCOC(=O)/C=C/c1c[nH]cn1 | > 500 µM (inactive) |  | > 500 µM (inactive) |  |  | > 500 µM (inactive) | > 500 µM (inactive) | > 500 µM (inactive) | > 500 µM (inactive) | > 500 µM (inactive) | > 500 µM (inactive) | > 500 µM (inactive) | > 500 | > 500 µM (inactive) | > 500 µM (inactive) | > 500 µM (inactive) | > 500 µM (inactive) |  | > 500 µM (inactive) | 
CCCCCCCC(CC(=O)NC(CO)C(=O)NC(CO)CC(C)C)OC(=O)CC(CCCCCCC)OC(=O)CC(CCCCCCC)OC1OC(C)C(O)C(OC2OC(C)C(OC(C)=O)C(O)C2O)C1O (stereo not drawn) | 10.7 µM (inactive) | 15.7 µM (inactive) | 3.76 µM (inactive) | 4.04 µM (inactive) | 3.67 µM (inactive) | 2.52 µM (inactive) |  | 16.3 µM (inactive) | 4.61 µM (inactive) | 6.64 µM (inactive) | 9.27 µM (inactive) | 10.6 µM (inactive) |  | 2.22 µM (inactive) | 4.84 µM (inactive) | 14.9 µM (inactive) |  | 2.55 µM (inactive) | 3.7 µM (inactive) | 7.91 µM (inactive)
COC(=O)C(=O)C(C(=O)C(=O)Nc1ccc(F)cc1)c1nc2ccc([N+](=O)[O-])cc2nc1O (stereo not drawn) | > 100 µM (inactive) |  | > 100 µM (inactive) |  | > 100 µM (inactive) | > 100 µM (inactive) | > 100 µM (inactive) | > 100 µM (inactive) | > 100 µM (inactive) | > 100 µM (inactive) | > 100 µM (inactive) | > 100 µM (inactive) | > 100 | > 100 µM (inactive) | > 100 µM (inactive) | > 100 µM (inactive) |  | > 100 µM (inactive) | > 100 µM (inactive) | 
Cc1cc([N+](=O)[O-])ccc1NC(=O)C(=O)C(C(=O)c1ccccc1-c1ccccc1)C1OC(=O)c2ccccc21 (stereo not drawn) | 19.6 µM (inactive) | 31.3 µM (inactive) | 4.85 µM (inactive) |  | 14 µM (inactive) | 20.8 µM (inactive) |  | 22.7 µM (inactive) | 25.4 µM (inactive) | 14.8 µM (inactive) | 20.8 µM (inactive) | 13.1 µM (inactive) | 15.1 | 25.4 µM (inactive) | 16 µM (inactive) | > 10 µM (inactive) |  | 16.4 µM (inactive) | 22.9 µM (inactive) | 
COc1cc(/C=N/N=C(\N)NO)cc(Cl)c1O | 69.7 µM (inactive) | 34.4 µM (inactive) | 11.5 µM (inactive) |  | 33.4 µM (inactive) | > 100 µM (inactive) | 31 µM (inactive) | 55.8 µM (inactive) | 53.2 µM (inactive) | 20.7 µM (inactive) | 65.6 µM (inactive) | 55.2 µM (inactive) | 66.8 | 73.8 µM (inactive) | 55.7 µM (inactive) | 30.9 µM (inactive) |  | 40.7 µM (inactive) | 38.1 µM (inactive) | 

— ChEMBL document CHEMBL1201862, “PubChem BioAssay data set” (2004)
